Source: doi:10.1101/2025.03.31.646301v1, “Discovery of Tankyrase scaffolding inhibitor specifically targeting the ARC4 peptide binding domain” (biorxiv, 2025)

What was measured:
[1] = target: T1, TNKS1 ARC2-3 (Homo sapiens, UniProt O95271); test: FRET displacement of YFP-REAGDGEE peptide from CFP-ARC; format: binding
T1 construct: gene TNKS; ankyrin repeat clusters 2-3, 6xHis-mCerulean (CFP) fusion, E. coli
T1 sequence (O95271 336-649 limits assumed): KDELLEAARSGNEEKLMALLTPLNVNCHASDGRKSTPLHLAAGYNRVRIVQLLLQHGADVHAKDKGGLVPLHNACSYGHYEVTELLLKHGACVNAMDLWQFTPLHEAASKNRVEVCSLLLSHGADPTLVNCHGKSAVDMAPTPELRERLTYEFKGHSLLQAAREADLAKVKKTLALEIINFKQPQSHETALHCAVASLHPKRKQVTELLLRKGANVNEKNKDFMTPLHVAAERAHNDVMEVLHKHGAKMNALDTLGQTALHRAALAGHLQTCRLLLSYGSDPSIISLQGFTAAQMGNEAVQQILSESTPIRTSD
Description: FRET displacement of YFP-REAGDGEE peptide from CFP-ARC on TNKS1 ARC2-3

[2] = target: T2, TNKS2 ARC1 (Homo sapiens, UniProt Q9H2K2); test: as above; format: binding
T2 construct: ankyrin repeat cluster 1 domain, 6xHis-mCerulean (CFP) fusion, E. coli
T2 sequence (Q9H2K2 21-174 limits assumed): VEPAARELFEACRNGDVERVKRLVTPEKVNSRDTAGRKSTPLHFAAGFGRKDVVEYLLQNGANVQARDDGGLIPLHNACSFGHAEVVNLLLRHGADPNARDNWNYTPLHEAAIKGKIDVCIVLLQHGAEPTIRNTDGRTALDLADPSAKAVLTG
Description: FRET displacement of YFP-REAGDGEE peptide from CFP-ARC on TNKS2 ARC1

[3] = target: T3, TNKS1 ARC4 (Homo sapiens, UniProt O95271); test: as above; format: binding
T3 construct: gene TNKS; ankyrin repeat cluster 4 domain, 6xHis-mCerulean (CFP) fusion, E. coli
T3 sequence (O95271 649-806 limits assumed): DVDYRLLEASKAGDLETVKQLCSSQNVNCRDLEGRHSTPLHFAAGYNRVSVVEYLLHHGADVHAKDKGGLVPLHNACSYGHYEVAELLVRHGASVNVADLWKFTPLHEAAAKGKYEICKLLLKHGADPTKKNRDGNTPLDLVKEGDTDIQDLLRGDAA
Description: FRET displacement of YFP-REAGDGEE peptide from CFP-ARC on TNKS1 ARC4

[4] = target: T4, TNKS2 ARC4 (Homo sapiens, UniProt Q9H2K2); test: as above; format: binding
T4 construct: ankyrin repeat cluster 4 domain; FRET: 6xHis-mCerulean (CFP) fusion; DSF, NMR, crystal: MBP and His tag cleaved by TEV, residues 487-649 printed for crystal; E. coli BL21(DE3)
T4 sequence (Q9H2K2 487-649): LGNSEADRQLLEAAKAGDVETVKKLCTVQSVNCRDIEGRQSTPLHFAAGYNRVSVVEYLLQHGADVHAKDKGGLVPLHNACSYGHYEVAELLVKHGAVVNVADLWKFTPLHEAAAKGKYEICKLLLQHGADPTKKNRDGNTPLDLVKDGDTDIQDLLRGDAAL

[5] = target: T5, TNKS2 ARC2 (Homo sapiens, UniProt Q9H2K2); test: as above; format: binding
T5 construct: ankyrin repeat cluster 2 domain, 6xHis-mCerulean (CFP) fusion, E. coli
T5 sequence (Q9H2K2 173-329 limits assumed): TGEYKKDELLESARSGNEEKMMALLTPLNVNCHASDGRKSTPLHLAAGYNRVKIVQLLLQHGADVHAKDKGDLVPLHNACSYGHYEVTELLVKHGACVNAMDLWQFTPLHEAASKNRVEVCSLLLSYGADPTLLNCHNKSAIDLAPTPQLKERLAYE
Description: FRET displacement of YFP-REAGDGEE peptide from CFP-ARC on TNKS2 ARC2

[6] = target: T6, TNKS1 ARC5 (Homo sapiens, UniProt O95271); test: as above; format: binding
T6 construct: gene TNKS; ankyrin repeat cluster 5 domain, 6xHis-mCerulean (CFP) fusion, E. coli
T6 sequence (O95271 806-966 limits assumed): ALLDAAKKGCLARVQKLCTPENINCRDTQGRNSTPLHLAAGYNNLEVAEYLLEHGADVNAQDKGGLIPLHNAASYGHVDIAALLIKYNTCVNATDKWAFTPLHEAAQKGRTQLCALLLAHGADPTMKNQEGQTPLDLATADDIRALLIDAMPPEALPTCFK
Description: FRET displacement of YFP-REAGDGEE peptide from CFP-ARC on TNKS1 ARC5

[7] = target: T7, TNKS2 ARC5 (Homo sapiens, UniProt Q9H2K2); test: as above; format: binding
T7 construct: ankyrin repeat cluster 5 domain, 6xHis-mCerulean (CFP) fusion, E. coli
T7 sequence (Q9H2K2 646-800 limits assumed): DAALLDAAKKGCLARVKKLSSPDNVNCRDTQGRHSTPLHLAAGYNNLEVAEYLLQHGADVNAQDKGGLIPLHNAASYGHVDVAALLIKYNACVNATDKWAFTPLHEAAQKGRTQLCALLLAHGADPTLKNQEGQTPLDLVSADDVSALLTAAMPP
Description: FRET displacement of YFP-REAGDGEE peptide from CFP-ARC on TNKS2 ARC5

[8] = target: T8, TNKS1 ARC1 (Homo sapiens, UniProt O95271); test: as above; format: binding
T8 construct: gene TNKS; ankyrin repeat cluster 1 domain, 6xHis-mCerulean (CFP) fusion, E. coli
T8 sequence (O95271 173-336 limits assumed): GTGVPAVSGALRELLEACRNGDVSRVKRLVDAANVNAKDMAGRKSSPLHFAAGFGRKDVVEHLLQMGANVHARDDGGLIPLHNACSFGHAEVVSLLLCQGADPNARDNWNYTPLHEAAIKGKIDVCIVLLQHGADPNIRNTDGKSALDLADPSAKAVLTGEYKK
Description: FRET displacement of YFP-REAGDGEE peptide from CFP-ARC on TNKS1 ARC1

[9] = target: T4, TNKS2 ARC4; parameters: DSF thermal shift of TNKS2 ARC4, stabilization over DMSO control; conditions: binder
Description: Given the notable stabilization of the pyrrolone-based compounds from the Commercials Diversity collection, we decided to focus on their common scaffold for compound optimization. Pyrrolone is indeed a versatile moiety that is largely employed for the design of compounds with a variety of biological effects.[55] The nine primary hits were acquired from commercial suppliers, they underwent quality control, additional DSF validation and determination of potency through FRET-based IC50 measurements (Table 1). All the tested compounds include a benzodioxane moiety (R[1]), a [compound left out] group with substitutions in the para position (R[2]), and an R[3] group with an aliphatic character and a tertiary amine. […] In addition, all molecules, except for 7, have IC50 values below 100 µM. Among the nine molecules, 1 performed the best in terms of stabilization of TNKS2 ARC4 and potency. […] In the same position, the presence of a hydrophobic methyl group (3, 4), other halogen substituents (5) and alkoxy groups (6–9) is also tolerated, even if not optimal. […] A SAR investigation was conducted with purchased and synthesized analogues of 1 through FRET-based potency measurements and DSF assay with TNKS2 ARC4 (Table 2, Table S2). All the compounds commercially acquired underwent quality control. […] Changes to the length of the aliphatic chain at R[3] greatly impacts both potency and protein stabilization. […] The diethylamino-based substituent at R[3] […] Compounds 25 and 26 further indicate that the presence of tertiary amine at R[3] is not necessary to achieve binding. […] 5 Figure S2. DSF assay results for validation of primary hits identified in the EU-OPENSCREEN Commercials Diversity Library. (A) and (B) show DSF assay validation measurements of TNKS2 ARC4 with primary hits from the Commercial Diversity Library. Compounds are tested at 100 μM. They are named after their EU-OPENSCREEN identity codes and the identities are available for consultation on ECBD. 1,2 (A) and (B) show results from two independent experiments. For each experiment, each compound was tested with a single measurement, while controls (TNKS2 ARC4 with 100 μM optimized peptide, TNKS2 ARC4 with 100 μM DMSO) are studied in at least four replicates and errors are shown. Moreover, stabilization over the control (TNKS2 ARC4 with DMSO) is indicated (ΔTm °C). […] It was not possible to measure the melting curve of TNKS2 ARC4 in presence of EOS21552, EOS54043, EOS54043.

[10] = target: T4, TNKS2 ARC4; test: X-ray co-crystal structure; format: binding; conditions: residues 487-649, tag-free, pH 4.2; S enantiomer in TBM pocket, R enantiomer at crystal contacts

| IC50 [1] [µM] | IC50 [2] [µM] | IC50 [3] [µM] | IC50 [4] [µM] | IC50 [5] [µM] | IC50 [6] [µM] | IC50 [7] [µM] | IC50 [8] [µM] | ΔTm ± SD (°C) [9] [°C] | SMILES | X-ray co-crystal structure [10] |
| --- | --- | --- | --- | --- | --- | --- | --- | --- | --- | --- |
| > 1000 | > 1000 | 18 | 16 | > 1000 | > 1000 | > 1000 | > 1000 |  | CCN(CC)CCCN1C(=O)C(O)=C(C(=O)c2ccc3c(c2)OCCO3)C1c1ccc(O)cc1 (stereo not drawn) [compound 1, 1] |  |
| > 1000 | > 1000 | 121 | 77 | > 1000 | > 1000 | > 1000 | > 1000 | 2.19 ± 0.31 | Cc1ccc(C2C(C(=O)c3ccc4c(c3)OCCO4)=C(O)C(=O)N2CCCN2CCOCC2)cc1 (stereo not drawn) [compound 4, 4] |  |
| > 1000 | > 1000 | 123 | 82 | > 1000 | > 1000 | > 1000 | > 1000 | 1.81 ± 0.31 | COc1ccc(C2C(C(=O)c3ccc4c(c3)OCCO4)=C(O)C(=O)N2CCCN2CCOCC2)cc1 (stereo not drawn) [compound 6, 6] |  |
| > 1000 |  | 9 |  | > 1000 | > 1000 |  | > 1000 | 2.44 ± 0.12 | CCC(CC)CCCN1C(=O)C(O)=C(C(=O)c2ccc3c(c2)OCCO3)[C@@H]1c1ccc(O)cc1 [S8] | we co-crystallized the compound displaying the best potency (S8) with TNKS2 ARC4 |
